Results on 69 compounds are retold here after US6057371A, “Sigma receptor ligands and the use thereof” (Virginia Commonwealth University, priority 1992, dated 2000).

The assay deals with sigma receptor. Briefly: Sigma receptor binding, [^3 H]DTG, brain membranes (both sigma-1 and sigma-2 sites). Set-up: species or system guinea pig. The following applies: for IC50: Table 6; for change in sigma affinity, words: Example 6. As to the method:
Sigma receptor binding assays using guinea pig brain membrane homogenates and the radioligand [^3 H]DTG were conducted as described by Weber et al.. […] Briefly, frozen whole guinea-pig brains (Biotrol, Indianapolis, Ind.) were homogenized in 10 volumes (w/v) of ice-cold 320 mM sucrose using a Brinkman polytron. The homogenate was centrifuged at 1,000× g for 20 minutes at 4° C. The supernatant was centrifuged at 20,000× g for 20 minutes at 4° C. The resulting pellet was resuspended in 10 initial volumes of 50 mM Tris/HCl buffer at pH 7.4 and centrifuged at 20,000× g for 20 minutes at 4° C. The resulting pellet was resuspended in 5 initial volumes ice-cold 50 mM Tris/Hcl […], and the final volume was adjusted to yield a protein concentration of 3 mg/ml. Aliquots of 20-ml were stored at -70° C. until used, with no detectable loss of binding.
The protein concentration in the 1-ml final incubation volume was 800 ug/ml, corresponding to 32 mg of brain tissue (original wet weight) and to a tissue concentration within the linear range for specific binding. […] Incubations were terminated after 90 minutes at room temperature by addition of 4 ml of ice-cold 50 mM Tris/HCl (pH 7.4) and rapid filtration of the membrane suspension through Whatman GF/B glass-fiber filters under vacuum, using a 48-well cell harvester (Brandel). The filters were washed 2 times with 4 ml of 50 mM Tris/HCl (pH 7.4). Each filter was suspended in 10 ml Cytoscint (ICI), and radioactivity was measured by liquid scintillation spectrometry at a counting efficiency of approximately 50%. IC50 values were determined by non-linear regression analyis.
Further sigma receptor binding assays against [^3 H]DTG and 5HT-1A binding assays were conducted according to the procedure outlined in the previous examples.
Radioligand Binding. […] Briefly, membranes (P2 microsomal fraction) were diluted 1:3 with 50 mM Tris HCl (pH 7.4) and 0.4 mL was combined with 50 μL [^3 H]DTG (1-2 nM final concentration) and 50 μL of competing drug or buffer. After 90 min at room temperature, incubation was terminated by rapid filtration under vacuum through Whatman GF/B glass fiber filters using a Brandel 48-well cell harvester. Filters were washed three times with 5 mL of cold Tris HCl buffer and each filter was suspended in 5 mL of Cytoscint (ICN Biomedical). Radioactivity was measured by liquid scintillation spectrometry at a counting efficiency of 50%.

The mark [1] stands for this setting: running text, Examples 5 and 6, read-out: sigma receptor Ki.
Setting [2] is: Table 7, Phenyl-(CH2)x -NH--(CH2)y -Phenyl, read-out: Ki.

Where a name gives a salt, the structure may show the parent alone. Read-outs that look alike come from different tables or passages of the source.

As for `CCCc1ccc(CC(C)N(C)CCCc2ccccc2)cc1` (stereo not drawn), the “affinity for the sigma receptor, words” value (Example 5) was “highest and most selective affinity for the sigma receptor”. `O=C(c1ccccc1)N1CCNCC1` [Compound 54]: where the note is “[^3 H]DTG”, the IC50 (in general, the concentration that inhibits the measured activity by half) turned out to be 11800 nM. On the same count and under the same terms, in the case of `c1ccc(C2CCNCC2)cc1` [Compound 58] it was 2050 nM; in that of `COc1ccccc1C1(O)CCNCC1` [Compound 61], 14800 nM. Under “[^3 H]DTG”, `CCCNC1CCc2ccccc2C1` (stereo not drawn) [Compound 63] registered a half-inhibitory concentration (IC50) of 763 nM.

In turn, `c1ccc(CCCNCCc2ccc3ccccc3c2)cc1` [Compound 88] had an IC50 ([^3 H]DTG) of 53.4 nM. On the same count and under the same terms, in the case of `O=C1c2ccccc2C(=O)N1CCN1CCN(c2ccccc2)CC1` [Compound 95] it was 17000 nM. Still for that read-out and setting: in the case of `CCCC(Cc1ccccc1)NCCCc1ccccc1` (stereo not drawn) [Compound 100] it was 25.6 nM; in that of `CN1CCc2ccccc2C(c2ccccc2)C1` (stereo not drawn) [Compound 102], 6690 nM. In turn, `c1cnc(N2CCNCC2)nc1` [Compound 107] registered an IC50 ([^3 H]DTG) of 10000 nM. Same read-out and setting: the figure for `CN(CCc1ccccc1)CCc1ccccc1` [Compound 108] is 37.9 nM; for `c1ccc(CNCc2ccccc2)cc1` [Compound 109] it is 184 nM; for `CCC[C@@H](Cc1ccccc1)N(C)CCCc1ccccc1` [Compound 116] it is 10.1 nM. Same read-out and setting: in the case of `O=C1c2ccccc2C(=O)N1CCCCN1CCN(Cc2ccccc2)CC1` [Compound 119] it was 21.4 nM. As for `CCCN(C)CCCCCc1ccccc1` [Compound 122], under setting [1], the Ki – broadly, the equilibrium dissociation constant of an inhibitor or competing ligand from its target – is 2.4 nM. Consider `CCCCCCN(C)CCc1ccccc1` [Compound 130, N-Methyl-N-hexyl-2-phenylethylamine Hydrogen Oxalate], for which the IC50 ([^3 H]DTG) is 4.23 nM. Under setting [1], the Ki came out at 3.8 nM. In the same order, the values of `CCCCCCN(C)CCC` [Compound 131, N-Methyl-N-propylhexylamine Hydrogen Oxalate] are 46.9 nM and 45 nM. Take `CCCN(CCCc1ccccc1)[C@@H](C)Cc1ccccc1` [Compound 133]: for the setting “[^3 H]DTG”, the concentration for half-maximal inhibition (IC50) turned out to be 6.44 nM. Regarding `O=C(O)C(=O)O.c1ccc(CCCCCNc2ccccc2)cc1` [Compound 135, N-Phenyl-5-phenyl pentyl amine Hydrogen Oxal ate], where the note is “Examples 5 and 6, [^3 H]DTG”, the “change in sigma receptor affinity vs. analog” value is 6 fold. For the setting “[^3 H]DTG”, the IC50 was 13.5 nM. Further, under setting [1], the Ki was found to be 12 nM. Take `CN(CCCCCc1ccccc1)CCCc1ccccc1` [Compound 136]: the “change in sigma affinity, words” value is listed as “doubles affinity”. Under “[^3 H]DTG”, the IC50 amounted to 1.78 nM.

The compound `c1ccc(CCCCCN2CCN(CCCCCc3ccccc3)CC2)cc1` [Compound 138] returned an IC50 ([^3 H]DTG) of 2.67 nM. This lies in the single-digit nanomolar range.

In turn, `COc1ccccc1CCNCCCCCc1ccccc1` [Compound 144] came in with an IC50 ([^3 H]DTG) of 4.39 nM. Still for that read-out and setting: the figure for `COc1cccc(CCNCCCCCc2ccccc2)c1` [Compound 145] is 1.63 nM. On the same count and under the same terms, the figure for `COc1ccc(CCNCCCCCc2ccccc2)cc1` [Compound 146] is 2.38 nM; for `c1ccc(CN2CCCCC2)cc1` [Compound 147] it is 117 nM; for `OC1(c2ccccc2)CCN(CCc2ccccc2)CC1` [Compound 148] it is 6.43 nM. As to `CC(C)(C)C1(O)CCN(CCc2ccccc2)CC1` [Compound 149], the IC50 ([^3 H]DTG) was 21.5 nM. Still for that read-out and setting: in the case of `C1CCC(CCCCCN2CCCCC2)CC1` [Compound 150] it was 0.96 nM; in that of `C(CCNCC1CCCCC1)CCC1CCCCC1` [Compound 151, H-Cyclohexylmethyl-5-cyclohexylpentylamine Hydrochloride], 1.39 nM. On to `CN(CCCCCC1CCCCC1)CC1CCCCC1.Cl` [Compound 152, N-Methyl-N-cyclohexylmethyl-5-cyclohexylpentylamine Hydrochloride], for which the “change in sigma affinity, words” value is listed as “doubles affinity”. For the same compound, the IC50 ([^3 H]DTG) was 1.76 nM. Take `OC1(c2ccccc2)CC2CCC(C1)N2CCCCCc1ccccc1` (stereo not drawn) [Compound 153]: the IC50 ([^3 H]DTG) came out at 2.21 nM. On the same count and under the same terms, the figure for `CN1C2CCC1CC(O)(c1ccccc1)C2` (stereo not drawn) [Compound 154] is 3960 nM; for `CN1CCC(O)(c2ccccc2)CC1` [Compound 155] it is 1870 nM; for `CN1CCC(O)(c2ccc(Cl)cc2)CC1` [Compound 156] it is 131 nM.

`OC1(c2ccccc2)CCNC1` (stereo not drawn) [Compound 157] registered an IC50 ([^3 H]DTG) of 6110 nM. Still for that read-out and setting: in the case of `O=C(CCCCN1CCCCC1)c1ccc(Cl)cc1` [Compound 159] it was 1.3 nM.

For the compound `O=C(CCCCN1CCC(c2ccccc2)CC1)c1ccc(Cl)cc1` [Compound 160], for the setting “[^3 H]DTG”, the IC50 was found to be 0.62 nM. The same measure, in the same setting: the figure for `COc1ccc(C(=O)CCCCN2CCCCC2)cc1` [Compound 161] is 10.9 nM; for `COc1ccc(C(=O)CCCCN2CCC(c3ccccc3)CC2)cc1` [Compound 162] it is 0.9 nM.

Where the note is “[^3 H]DTG”, `COc1ccc(CCCCCN2CCCCC2)cc1` [Compound 164] returned an IC50 of 5.19 nM. The same measure, in the same setting: in the case of `COc1ccc(CCCCCN2CCC(c3ccccc3)CC2)cc1` [Compound 165] it was 1.27 nM. On the same count and under the same terms, the figure for `O=C(CCCCN1CCC(c2ccccc2)CC1)c1ccccc1` [Compound 166] is 1.03 nM; for `Clc1ccc(CCCCCN2CCC(c3ccccc3)CC2)cc1` [Compound 167] it is 1.96 nM; for `COc1cccc(C(=O)CCCCN2CCCCC2)c1` [Compound 169] it is 22.8 nM. For the setting “[^3 H]DTG”, `O=C(CCCCN1CCCCC1)c1cccc(Cl)c1` [Compound 170] gave an IC50 of 4.18 nM. This IC50 is about 5.5-fold lower than that of the compound before.

Consider `O=C(CCCCN1CCC(c2ccccc2)CC1)c1cccc(Cl)c1` [Compound 171], for which, under “[^3 H]DTG”, the IC50 was 1.19 nM. On the same count and under the same terms, in the case of `Oc1cccc(CCNCCCCCc2ccccc2)c1` [Compound 172, N-[2-(3-hydroxyphenyl)ethyl]-5-phenylpentylamine Hydrobromide] it was 7.46 nM; in that of `Oc1ccccc1CCNCCCCCc1ccccc1` [Compound 173], 17.2 nM; in that of `COc1cccc(C(=O)CCCCN2CCC(c3ccccc3)CC2)c1` [Compound 174], 1.1 nM. The same measure, in the same setting: the figure for `O=C(CCCN1CCCCC1)c1ccc(F)cc1` [Compound 175] is 42.9 nM. Same read-out and setting: the figure for `O=C(CCCCN1CCCCC1)c1ccc(F)cc1` [Compound 177] is 7.37 nM; for `O=C(CCCCN1CCC(c2ccccc2)CC1)c1ccc(F)cc1` [Compound 178] it is 0.896 nM; for `O=C(CCCCN1CCC(O)(c2ccc(Cl)cc2)CC1)c1ccc(F)cc1` [Compound 179] it is 2.82 nM. Take `O=C(CCCCN1CC=C(c2ccc(F)cc2)CC1)c1ccc(Cl)cc1` [Compound 180]: the IC50 ([^3 H]DTG) stood at 2.24 nM. On the same count and under the same terms, in the case of `O=C(CCCCN1CCC(c2ccc(F)cc2)CC1)c1ccc(Cl)cc1` [Compound 181] it was 1.08 nM; in that of `O=C(CCCCN1CC=C(c2ccc(Cl)cc2)CC1)c1ccc(Cl)cc1` [Compound 182], 4.68 nM. Compound `O=C(CCCCN1CCC(c2ccc(Cl)cc2)CC1)c1ccc(Cl)cc1` [Compound 183] yielded an IC50 ([^3 H]DTG) of 1.97 nM. Against the preceding compound, the IC50 is about 2.4-fold lower. Same read-out and setting: the figure for `O=C(CCCCN1CCC(c2ccc(Cl)cc2)CC1)c1ccc(Cl)c(Cl)c1` [Compound 184] is 1.98 nM; for `CN1CCC(OC(c2ccccc2)c2ccccc2)CC1` [Compound 186] it is 656 nM. Still for that read-out and setting: in the case of `CCN(CC)CCOC(=O)C(c1ccccc1)c1ccccc1` [Compound 187] it was 50.6 nM. Still for that read-out and setting: in the case of `CCN(CC)CCOC(=O)C1c2ccccc2-c2ccccc21` [Compound 188] it was 174 nM; in that of `O=C(CCCCN1CCCCC1)C1CCCC1` [Compound 189], 13.5 nM; in that of `c1ccc(CCCCCN2CC3CCC(CC3)C2)cc1` [Compound 190], 1.07 nM. `C(/C=C/c1ccc2c(c1)OCO2)=C\CN1CCCCC1` [Compound 191] returned an IC50 ([^3 H]DTG) of 8.14 nM. This IC50 lies about 7.6-fold higher than the previous one. As for `c1ccc(CNCc2ccccc2)cc1` [x=1, y=1], the inhibitory constant (Ki) under setting [2] stood at 175 nM. Same read-out and setting: in the case of `c1ccc(CCCCNCCCc2ccccc2)cc1` [x=3, y=4] it was 7 nM. In the case of `c1ccc(CCCCCCNCCCc2ccccc2)cc1` [x=3, y=6], under setting [2], the Ki turned out to be 2.6 nM. Same read-out and setting: the figure for `c1ccc(CCCCNCCCCc2ccccc2)cc1` [x=4, y=4] is 6.7 nM. In the case of N-(3-phenylpropyl)isopropylamine, the Ki under setting [1] amounted to 22 nM.
